Test results taken from patent publication US11015200B2, “Antisense-induced exon exclusion in myostatin” (Sarepta Therapeutics, Inc., priority 2015, dated 2021).
{TEG} = triethylene glycol spacer

Columns and labels:
[1] = system: exon 2 of the human myostatin gene (huMSTN); assay: Exon 2 skipping by RT-PCR in nucleofected human rhabdomyosarcoma (RD) cells; format: cell-based; details: for EC50: RD cells nucleofected with PMO at 10, 3, 1, 0.3 μM, overnight, concentration inducing 50% exon skipping; for exon skipping, in words: third series, FIG. 5, RD cells, based on the calculated EC50 values
Experimental: (§1) In vitro experiments were performed to investigate the ability of antisense oligonucleotides designed and prepared as described above to decrease the expression of exon 2 containing myostatin pre-mRNA. Both human rhabdomyosarcoma cells (RD cells; ATCC CCL-136) and primary human myoblasts were used in the experiments as noted. RD cells or primary human skeletal myoblasts were nucleofected with PMOs at 10, 3, 1 and 0.3 μM in SG or P3 nucleofector solution, respectively, and incubated overnight at 37° C. with 5% CO2. Total RNA was isolated from the cells and RT-PCR was performed using primers Myostatin EX1 Fwd (5′ […] SEQ ID NO: 48) and Myostatin EX3 Rev (5′ […] SEQ ID NO: 49). Amplified samples were analyzed using the LabChip Caliper to determine percent exon 2 skipping. EC50 values were determined using non-linear regression analysis in GraphPad Prism. EC50 values represent the concentration at which the test PMO induces 50% exon skipping.

[2] = system: exon 2 of the human myostatin gene (huMSTN); assay: Exon 2 skipping by RT-PCR in nucleofected primary human myoblasts; format: cell-based; details: primary human myoblasts nucleofected with PMO at 10, 3, 1, 0.3 μM, overnight, concentration inducing 50% exon skipping
Experimental: as §1

[3] = second series (FIG. 4), * = ambiguous fit on non-linear regression

## huMSTN-SA2(02 + 23): PMO, 5′ TEG, 3′ H; targeting sequence ATCCACTTGCATTAGAAAATCAGCT (all phosphorodiamidate morpholino (PMO), 5' {TEG})
[1]; third series (FIG. 5)
  EC50: 1020 nM

## huMSTN-SA2(−01 + 24): PMO, 5′ TEG, 3′ H; targeting sequence CATCCACTTGCATTAGAAAATCAGC (all phosphorodiamidate morpholino (PMO), 5' {TEG})
[1]; third series (FIG. 5)
  EC50: 551 nM
[1]
  exon skipping, in words: most effective

## huMSTN-SA2(−01 + 25): PMO, 5′ TEG, 3′ H; targeting sequence CCATCCACTTGCATTAGAAAATCAGC (all phosphorodiamidate morpholino (PMO), 5' {TEG})
[2]; first series (FIG. 3)
  EC50: 2.16 µM

## huMSTN-SA2(−03 + 22): PMO, 5′ TEG, 3′ H; targeting sequence TCCACTTGCATTAGAAAATCAGCTA (all phosphorodiamidate morpholino (PMO), 5' {TEG})
[1]; third series (FIG. 5)
  EC50: 11900 nM

## huMSTN-SA2(−04 + 21): PMO, 5′ TEG, 3′ H; targeting sequence CCACTTGCATTAGAAAATCAGCTAT (all phosphorodiamidate morpholino (PMO), 5' {TEG})
[1]; third series (FIG. 5)
  EC50: 365 nM
[1]
  exon skipping, in words: most effective

## huMSTN-SA2(−05 + 20): PMO, 5′ TEG, 3′ H; targeting sequence CACTTGCATTAGAAAATCAGCTATA (all phosphorodiamidate morpholino (PMO), 5' {TEG})
[2]; first series (FIG. 3)
  EC50: 3.87 µM
[1]; third series (FIG. 5)
  EC50: 214 nM
[1]
  exon skipping, in words: most effective

## huMSTN-SA2(−07 + 18): PMO, 5′ TEG, 3′ H; targeting sequence CTTGCATTAGAAAATCAGCTATAAA (all phosphorodiamidate morpholino (PMO), 5' {TEG})
[1]; third series (FIG. 5)
  EC50: 881 nM

## muhuD30-SD2(+30 + 1): sequence known in the prior art (US 2013/0085139), 5′ TEG, 3′ H; CAGCCCATCTTCTCCTGGTCCTGGGAAGGT (all phosphorodiamidate morpholino (PMO), 5' {TEG}) [reference compound]
[2]; first series (FIG. 3)
  EC50: 2.7 µM
[1]; [3]
  EC50: 522 nM

## muhuMSTN-SD2(+01 − 23): PMO, 5′ TEG, 3′ H; targeting sequence TGTTATTTTCAGTTATCACTTACC (all phosphorodiamidate morpholino (PMO), 5' {TEG})
[2]; fourth series (FIG. 6)
  EC50: 0.648 µM

## muhuMSTN-SD2(+01 − 24): PMO, 5′ TEG, 3′ H; targeting sequence ATGTTATTTTCAGTTATCACTTACC (all phosphorodiamidate morpholino (PMO), 5' {TEG})
[2]; fourth series (FIG. 6)
  EC50: 0.642 µM

## muhuMSTN-SD2(+02 − 18): PMO, 5′ TEG, 3′ H; targeting sequence TTTTCAGTTATCACTTACCA (all phosphorodiamidate morpholino (PMO), 5' {TEG})
[2]; fourth series (FIG. 6)
  EC50: 6.21 µM

## muhuMSTN-SD2(+02 − 19): PMO, 5′ TEG, 3′ H; targeting sequence ATTTTCAGTTATCACTTACCA (all phosphorodiamidate morpholino (PMO), 5' {TEG})
[2]; fourth series (FIG. 6)
  EC50: 3.58 µM

## muhuMSTN-SD2(+02 − 20): PMO, 5′ TEG, 3′ H; targeting sequence TATTTTCAGTTATCACTTACCA (all phosphorodiamidate morpholino (PMO), 5' {TEG})
[2]; fourth series (FIG. 6)
  EC50: 4.06 µM

## muhuMSTN-SD2(+02 − 21): PMO, 5′ TEG, 3′ H; targeting sequence TTATTTTCAGTTATCACTTACCA (all phosphorodiamidate morpholino (PMO), 5' {TEG})
[2]; fourth series (FIG. 6)
  EC50: 3.99 µM

## muhuMSTN-SD2(+02 − 22): PMO, 5′ TEG, 3′ H; targeting sequence GTTATTTTCAGTTATCACTTACCA (all phosphorodiamidate morpholino (PMO), 5' {TEG})
[2]; fourth series (FIG. 6)
  EC50: 0.687 µM

## muhuMSTN-SD2(+02 − 23): PMO, 5′ TEG, 3′ H; targeting sequence TGTTATTTTCAGTTATCACTTACCA (all phosphorodiamidate morpholino (PMO), 5' {TEG})
[2]; fourth series (FIG. 6)
  EC50: 0.277 µM

## muhuMSTN-SD2(+04 − 16): PMO, 5′ TEG, 3′ H; targeting sequence TTCAGTTATCACTTACCAGC (all phosphorodiamidate morpholino (PMO), 5' {TEG})
[2]; fourth series (FIG. 6)
  EC50: 3.91 µM

## muhuMSTN-SD2(+04 − 21): PMO, 5′ TEG, 3′ H; targeting sequence TTATTTTCAGTTATCACTTACCAGC (all phosphorodiamidate morpholino (PMO), 5' {TEG})
[2]; first series (FIG. 3)
  EC50: 1.05 µM
[1]; [3]
  EC50: 0.92 nM

## muhuMSTN-SD2(+05 − 16): PMO, 5′ TEG, 3′ H; targeting sequence TTCAGTTATCACTTACCAGCC (all phosphorodiamidate morpholino (PMO), 5' {TEG})
[2]; fourth series (FIG. 6)
  EC50: 1.33 µM

## muhuMSTN-SD2(+06 − 16): PMO, 5′ TEG, 3′ H; targeting sequence TTCAGTTATCACTTACCAGCCC (all phosphorodiamidate morpholino (PMO), 5' {TEG})
[2]; fourth series (FIG. 6)
  EC50: 0.829 µM

## muhuMSTN-SD2(+07 − 16): PMO, 5′ TEG, 3′ H; targeting sequence TTCAGTTATCACTTACCAGCCCA (all phosphorodiamidate morpholino (PMO), 5' {TEG})
[2]; fourth series (FIG. 6)
  EC50: 0.612 µM

## muhuMSTN-SD2(+07 − 18): PMO, 5′ TEG, 3′ H; targeting sequence TTTTCAGTTATCACTTACCAGCCCA (all phosphorodiamidate morpholino (PMO), 5' {TEG})
[2]; first series (FIG. 3)
  EC50: 0.662 µM
[1]; [3]
  EC50: 0.06 nM

## muhuMSTN-SD2(+08 − 16): PMO, 5′ TEG, 3′ H; targeting sequence TTCAGTTATCACTTACCAGCCCAT (all phosphorodiamidate morpholino (PMO), 5' {TEG})
[2]; fourth series (FIG. 6)
  EC50: 0.622 µM

## muhuMSTN-SD2(+09 − 11): PMO, 5′ TEG, 3′ H; targeting sequence TTATCACTTACCAGCCCATC (all phosphorodiamidate morpholino (PMO), 5' {TEG})
[2]; fourth series (FIG. 6)
  EC50: > 10 µM

## muhuMSTN-SD2(+09 − 12): PMO, 5′ TEG, 3′ H; targeting sequence GTTATCACTTACCAGCCCATC (all phosphorodiamidate morpholino (PMO), 5' {TEG})
[2]; fourth series (FIG. 6)
  EC50: 4.35 µM

## muhuMSTN-SD2(+09 − 13): PMO, 5′ TEG, 3′ H; targeting sequence AGTTATCACTTACCAGCCCATC (all phosphorodiamidate morpholino (PMO), 5' {TEG})
[2]; fourth series (FIG. 6)
  EC50: 2.4 µM

## muhuMSTN-SD2(+09 − 14): PMO, 5′ TEG, 3′ H; targeting sequence CAGTTATCACTTACCAGCCCATC (all phosphorodiamidate morpholino (PMO), 5' {TEG})
[2]; fourth series (FIG. 6)
  EC50: 1.25 µM

## muhuMSTN-SD2(+09 − 15): PMO, 5′ TEG, 3′ H; targeting sequence TCAGTTATCACTTACCAGCCCATC (all phosphorodiamidate morpholino (PMO), 5' {TEG})
[2]; fourth series (FIG. 6)
  EC50: 0.771 µM

## muhuMSTN-SD2(+09 − 16): PMO, 5′ TEG, 3′ H; targeting sequence TTCAGTTATCACTTACCAGCCCATC (all phosphorodiamidate morpholino (PMO), 5' {TEG})
[2]; fourth series (FIG. 6)
  EC50: 0.549 µM

## muhuMSTN-SD2(+10 − 15): PMO, 5′ TEG, 3′ H; targeting sequence TCAGTTATCACTTACCAGCCCATCT (all phosphorodiamidate morpholino (PMO), 5' {TEG})
[2]; first series (FIG. 3)
  EC50: 1.07 µM
[1]; [3]
  EC50: 0.02 nM
[1]; third series (FIG. 5)
  EC50: 115 nM
[1]
  exon skipping, in words: most effective

## muhuMSTN-SD2(+13 − 12): PMO, 5′ TEG, 3′ H; targeting sequence GTTATCACTTACCAGCCCATCTTCT (all phosphorodiamidate morpholino (PMO), 5' {TEG})
[1]; [3]
  EC50: 970 nM

## muhuMSTN-SD2(+18 − 07): PMO, 5′ TEG, 3′ H; targeting sequence CACTTACCAGCCCATCTTCTCCTGG (all phosphorodiamidate morpholino (PMO), 5' {TEG})
[2]; first series (FIG. 3)
  EC50: 3.88 µM
[1]; [3]
  EC50: 1290 nM

## muhuMSTN-SD2(+19 − 06): PMO, 5′ TEG, 3′ H; targeting sequence ACTTACCAGCCCATCTTCTCCTGGT (splice-switching; all phosphorodiamidate morpholino (PMO), 5' {TEG})
[1]; [3]
  EC50: 1330 nM

## muhuMSTN-SD2(+22 − 03): PMO, 5′ TEG, 3′ H; targeting sequence TACCAGCCCATCTTCTCCTGGTCCT (splice-switching; all phosphorodiamidate morpholino (PMO), 5' {TEG})
[1]; [3]
  EC50: 1410 nM

## muhuMSTN-SD2(+24 − 01): PMO, 5′ TEG, 3′ H; targeting sequence CCAGCCCATCTTCTCCTGGTCCTGG (splice-switching; all phosphorodiamidate morpholino (PMO), 5' {TEG})
[1]; [3]
  EC50: 1410 nM
